# Data as given in PubChem BioAssay AID602166 (The Scripps Research Institute Molecular Screening Center, 2012).
# Active and inactive are the calls of the source. The rule behind the calls is not given here.
# Biological target: Nuclear receptor coactivator 3 (Homo sapiens) (UniProt Q9Y6Q9)
# Assay: SRC3 coactivator transcriptional activity inhibitors, dose response, cell-based, luminescence (AID 602166);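 note: potency for reduction of SRC3 reporter signal so compounds are inhibitors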
# Conditions: SRC3 luciferase reporter cell assay
# Nuclear receptor coactivator 3 (Homo sapiens), sequence (Q9Y6Q9 whole entry, looked up): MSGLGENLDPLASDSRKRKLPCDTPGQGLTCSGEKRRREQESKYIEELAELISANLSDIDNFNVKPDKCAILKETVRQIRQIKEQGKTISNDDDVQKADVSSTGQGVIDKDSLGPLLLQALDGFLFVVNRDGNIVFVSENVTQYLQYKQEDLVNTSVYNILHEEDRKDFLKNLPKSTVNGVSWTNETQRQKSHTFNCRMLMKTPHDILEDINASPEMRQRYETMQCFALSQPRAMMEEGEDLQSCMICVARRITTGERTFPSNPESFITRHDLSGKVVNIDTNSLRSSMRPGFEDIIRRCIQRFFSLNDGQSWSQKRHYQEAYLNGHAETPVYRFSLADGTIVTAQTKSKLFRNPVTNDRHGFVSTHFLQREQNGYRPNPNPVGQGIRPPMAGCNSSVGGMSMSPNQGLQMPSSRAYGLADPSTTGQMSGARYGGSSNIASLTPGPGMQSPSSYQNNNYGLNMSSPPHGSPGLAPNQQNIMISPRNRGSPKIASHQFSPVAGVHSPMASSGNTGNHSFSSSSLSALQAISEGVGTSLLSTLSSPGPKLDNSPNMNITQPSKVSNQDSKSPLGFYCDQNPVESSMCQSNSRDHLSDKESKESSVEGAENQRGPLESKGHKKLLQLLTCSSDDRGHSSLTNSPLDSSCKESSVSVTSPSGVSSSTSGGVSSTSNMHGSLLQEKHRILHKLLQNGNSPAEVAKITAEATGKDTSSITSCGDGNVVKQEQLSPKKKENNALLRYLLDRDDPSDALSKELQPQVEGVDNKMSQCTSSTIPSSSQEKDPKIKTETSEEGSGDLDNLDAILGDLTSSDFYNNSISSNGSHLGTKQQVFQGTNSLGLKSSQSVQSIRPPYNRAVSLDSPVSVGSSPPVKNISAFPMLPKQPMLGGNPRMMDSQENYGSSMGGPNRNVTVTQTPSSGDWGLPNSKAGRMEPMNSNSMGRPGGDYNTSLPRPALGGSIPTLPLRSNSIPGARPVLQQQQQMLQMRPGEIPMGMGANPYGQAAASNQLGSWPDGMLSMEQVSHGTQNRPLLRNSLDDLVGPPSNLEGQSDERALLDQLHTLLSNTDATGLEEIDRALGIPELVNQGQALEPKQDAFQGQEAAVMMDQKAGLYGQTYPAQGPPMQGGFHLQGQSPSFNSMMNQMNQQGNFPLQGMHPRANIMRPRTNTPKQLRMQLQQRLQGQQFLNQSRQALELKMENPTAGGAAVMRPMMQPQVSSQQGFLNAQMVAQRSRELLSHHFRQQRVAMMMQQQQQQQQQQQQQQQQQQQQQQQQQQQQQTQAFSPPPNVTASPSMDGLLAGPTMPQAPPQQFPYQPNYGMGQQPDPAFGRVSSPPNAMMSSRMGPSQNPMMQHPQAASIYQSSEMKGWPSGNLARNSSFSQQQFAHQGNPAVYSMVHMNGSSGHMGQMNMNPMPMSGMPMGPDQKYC
row,Compound,IC50
1,Cc1cccc2sc(NNC(=O)c3ccc(S(=O)(=O)N4CC(C)CC(C)C4)cc3)nc12 (stereo unspecified),5.91 µM
2,CN(C)c1ccc(C(=S)Nc2ccccc2)cc1,> 35.9 µM (inactive)
3,CCCC(=O)NC(c1ccc(Cl)cc1Cl)c1ccc2cccnc2c1O (stereo unspecified),inactive
4,Cc1ccc(C2=NN(C(=O)CCl)C(c3cccs3)C2)o1 (stereo unspecified),inactive
5,O=C(Nc1ccccc1Oc1ccccc1)c1cc([N+](=O)[O-])ccc1Cl,5.45 µM
6,CS(=O)(=O)c1ccc(Sc2nc3ccccc3s2)c([N+](=O)[O-])c1,> 35.9 µM (inactive)
7,CN(Cc1cnc2nc(N)nc(N)c2n1)c1ccc(C(=O)NC(CCC(=O)O)C(=O)O)cc1 (stereo unspecified),> 35.9 µM (inactive)
8,COc1cc([C@@H]2c3cc4c(cc3[C@@H](O[C@@H]3O[C@@H]5CO[C@@H](C)O[C@H]5[C@H](O)[C@H]3O)[C@H]3COC(=O)[C@H]23)OCO4)cc(OC)c1O,2.48 µM
9,C[C@@H](C(=O)Nc1ccc2c(c1)OCCO2)n1c(=O)[nH]c2ccccc2c1=O,> 35.9 µM (inactive)
10,Nc1nc(CCl)nc(Nc2cccc3ccccc23)n1,inactive
11,NC(=S)N/N=C1\CCSc2ccc(Cl)cc21,3.94 µM
12,COc1ccc(C)cc1NS(=O)(=O)c1ccc(NC(=O)CN(c2cc([N+](=O)[O-])ccc2C)S(C)(=O)=O)cc1,inactive
13,Cc1cccc(Oc2sc(C(=O)c3ccccc3)c(N)c2C#N)c1,8.09 µM
14,Cc1ccc(/C=C2/SC(=S)N(CCCC(=O)Nc3ccc(O)cc3)C2=O)cc1,6.45 µM
15,O=c1[nH]c(O)c(N=Nc2ccc3c(c2)OCCO3)c(=O)[nH]1,> 35.9 µM (inactive)
16,COc1cc(/C=N/NC(=Nc2ccc(C)cc2)c2nc3ccccc3s2)ccc1O,> 35.9 µM (inactive)
17,CCN(c1cccc(C)c1)c1ncnc2nc[nH]c12,inactive
18,O=C(NCCc1ccccc1)c1ccc2c(c1)OCCO2,9.59 µM
19,O=C(CCl)Nc1cccc(-c2cnc3ccccc3n2)c1,inactive
20,COc1ccc(C(C(=O)NC2CCCCC2)N(C(=O)CCl)c2ccc(OC)cc2)cc1 (stereo unspecified),7.79 µM
21,COc1cc(C(=O)N/N=C(\c2ccccc2)c2ccccn2)cc(OC)c1OC,inactive
22,O=C(c1ccncc1)N(Cc1cc2ccccc2[nH]c1=O)C1CCCCC1,5.82 µM

row,Compound,IC50
1,NS(=O)(=O)c1ccc(Sc2nc3ccccc3s2)c([N+](=O)[O-])c1,inactive
2,c1ccc(-c2noc(-c3ccc4ccccc4c3)n2)nc1,8.62 µM
3,O=C(N/N=C(\c1ccccc1)c1ccccn1)c1ccccc1Cl,inactive
4,CCN(C(C)=O)c1cnc(C=NNC(N)=S)c2ccccc12,4.67 µM
5,O=[N+]([O-])c1nn(-c2ccc3c(c2)OCCO3)n(O)c1=Nc1ccccc1,1.08 µM
6,O=C(OCCC12CC3CC(CC(C3)C1)C2)c1ccc(NCc2cc(O)ccc2O)cc1,4.38 µM
7,CC(C)(C)c1cc(C(=O)N/N=C/c2ccc(O)cc2)n(-c2ccccc2)n1,> 35.9 µM (inactive)
8,CN1C(=O)C2(C(C#N)=C(N)N(c3cc(Cl)cc(Cl)c3)C3=C2C(=O)CCC3)c2ccccc21 (stereo unspecified),2.63 µM
9,O=C(CCl)N(c1ccccc1)C1CCS(=O)(=O)C1 (stereo unspecified),6.92 µM
10,O=S(=O)(c1ccc(F)cc1)c1snnc1-c1ccccc1,inactive
11,C=C1C(=O)[C@]23C[C@H]1CCC2[C@@]1(C)C(C[C@@H]3O)[C@](C)(C(=O)OC)CC[C@@H]1O (stereo partly specified),8.33 µM
12,O=C(N/N=C/c1cc(Br)c(Br)s1)c1ccncc1,8.67 µM
13,Cc1ccc(-n2c(Cl)c(Cl)nc(Cl)c2=O)cc1,inactive
14,CC1(C)N=C(N)N=C(N)N1CCCCc1ccccc1,3.98 µM
15,O=C(CNc1cccc([N+](=O)[O-])c1)N/N=C/c1ccc([N+](=O)[O-])o1,inactive
16,COc1cc2c(ccc3cc(OC)c(OC)c(O)c32)cc1O,inactive
17,Fc1ccccc1-c1csc(=Nc2cccnc2)n1CCCn1ccnc1,5.27 µM
18,COc1ccc(-n2cnc3c(sc4nccc(N(C)C)c43)c2=O)cc1,8.19 µM
19,COc1ccc(/C=C2\CN(Cc3ccccc3)C/C(=C\c3ccc(OC)c(O)c3)C2=O)cc1O,> 35.9 µM (inactive)
20,CCOc1ccc(-c2cc(C)n3nc(C(N)=O)cc3n2)cc1,7.81 µM
21,N#Cc1c2ccc(O)cc2n2ccccc12,3.41 µM
22,O=[N+]([O-])c1cccc2c1ccc1ncccc12,8.07 µM

row,Compound,IC50
1,COc1ccc(COC(=O)C2=C(C)NC(=O)NC2c2ccc(F)cc2)cc1 (stereo unspecified),7.71 µM
2,O=C(CCl)N(c1ccccc1)C1CCCCC1,8.7 µM
3,Cc1nc(N2CCC(C(N)=O)CC2)c2c(-c3cccs3)csc2n1,6.94 µM
4,COC(=O)c1c(C)n(-c2ccc(OC)cc2)c2ccc(O)cc12,3.99 µM
5,Cc1cccc(C)c1NS(=O)(=O)c1ccc(-c2cnc(C3CC3)o2)cc1,inactive
6,NNC(=O)c1cc2ccccc2cc1O,7.35 µM
7,O=C(OCc1ccccc1)c1ccc(NCc2cc(O)ccc2O)cc1,inactive
8,CNC(=O)c1cccn(Cc2ccc(C(F)(F)F)cc2)c1=O,> 35.8 µM (inactive)
9,CCCC(=O)NC(c1ccc(Cl)cc1)c1ccc2cccnc2c1O (stereo unspecified),4.7 µM
10,O=C(CC(Nc1ccc(Cl)cc1Cl)C(=O)O)c1ccccc1 (stereo unspecified),> 35.9 µM (inactive)
11,COc1ccccc1C(=O)N(CCC1CCCN1C)c1nc2ccccc2s1 (stereo unspecified),> 35.9 µM (inactive)
12,O=c1[nH]c2ccccc2n1C1CCN(C(c2cc3ccccc3o2)c2nnnn2Cc2ccccc2)CC1 (stereo unspecified),inactive
13,C=CCn1c(C)cc(C(=O)COc2ccc(C)nc2[N+](=O)[O-])c1C,> 35.9 µM (inactive)
14,CN(Cc1cnc2nc(N)nc(N)c2n1)c1ccc(C(=O)N[C@@H](CCC(=O)O)C(=O)O)cc1,> 35.9 µM (inactive)
15,Nc1ncnc(NCc2ccccc2)c1[N+](=O)[O-],5.6 µM
16,CCCNC(=O)c1nnsc1S(=O)(=O)c1ccc(Cl)cc1,8.04 µM
17,CCCC(=O)NC(c1ccc2c(c1)OCO2)c1cc(Cl)c2cccnc2c1O (stereo unspecified),7.71 µM
18,C/C(=N\NC(=S)Nc1cc(S(=O)(=O)N2CCOCC2)ccc1Cl)c1ccccc1F,> 35.9 µM (inactive)
19,Cc1c(Cl)cccc1NC(=O)Nc1ccccc1C(N)=O,> 35.9 µM (inactive)
20,O=C(Nc1ccc(OCC(=O)N2CCOCC2)cc1)c1cncc(Br)c1,4.43 µM
21,Cc1ccc(N=c2c([N+](=O)[O-])nn(-c3ccc4c(c3)OCCO4)n2O)cc1F,8.48 µM
22,Nc1ncccc1C(=O)OCC(=O)N1CCN(S(=O)(=O)c2ccc(Cl)cc2)CC1,7.74 µM

row,Compound,IC50
1,COc1cc(C2c3cc4c(cc3C(OC3OC5COC(c6cccs6)OC5C(O)C3O)C3COC(=O)C23)OCO4)cc(OC)c1O (stereo unspecified),0.093 µM
2,CN1C(=O)C2(C(C#N)=C(N)N(c3cc(Cl)cc(Cl)c3)C3=C2C(=O)CC(C)(C)C3)c2ccccc21 (stereo unspecified),4.34 µM
3,O=C(N/N=C\c1ccc([N+](=O)[O-])s1)c1cncc(Br)c1,5.46 µM
4,COc1cccc(NC(=O)CSc2nnc(-c3cc(C)n(-c4ccccc4)c3C)o2)c1,> 35.9 µM (inactive)
5,Cc1ccc(/C=C2\SC(=S)N(CCCC(=O)NC3CCCC3)C2=O)cc1,1.76 µM
6,CC(=O)c1cccc(NC(=O)Nc2ccc3c(c2)N(C)C(=O)CS3)c1,> 12 µM (inactive)
7,Cc1ccc(-n2c(C)cc(C(=O)COc3cccnc3[N+](=O)[O-])c2C)cc1,> 35.9 µM (inactive)
8,CC(=O)/C(N=Nc1ccc2c(c1)OCCO2)=C(\C)O,> 35.9 µM (inactive)
9,COc1cc2c(cc1OC)C(C)N(C(=O)c1cccc([N+](=O)[O-])c1)CC2 (stereo unspecified),7.21 µM
10,S=C(Nc1ccccc1)Nc1ccc(OCc2ccc(Cl)cc2Cl)cc1,4.36 µM
11,CO[C@@]12[C@@H]3N[C@@H]3CN1C1=C(C(=O)C(N)=C(C)C1=O)[C@@H]2COC(N)=O,> 35.8 µM (inactive)
12,CC(=O)c1ccc(Nc2c3c(nc4ccccc24)CCCC3)cc1,inactive
13,Cc1ccc2occ(/C=N/NC(=O)c3ccccc3Br)c(=O)c2c1,inactive
14,O=C(COc1ccc(Cl)cc1)Nc1ccc(C(=O)NCc2cccnc2)cc1,inactive
15,c1ccc2c(c1)Nc1ccncc1S2,inactive
16,Cc1nc(N)nc(N)c1-c1ccc(Cl)c(Cl)c1,1.37 µM
17,Cc1ccc2nc(C(F)(F)F)c(C#N)c(N)c2c1,inactive
18,CCc1ccc(-c2nc(CSCC(=O)NCc3ccco3)c(C)o2)cc1,> 35.9 µM (inactive)
19,CCOc1ccc(Nc2cc(C)nc(-n3nc(C)cc3C)n2)cc1,> 35.9 µM (inactive)
20,CN(C)S(=O)(=O)c1ccc(N2CCN(S(=O)(=O)c3ccc(F)cc3)CC2)c(Cl)c1,7.88 µM
21,Cc1ccc(N(CCC#N)C(=O)CCl)cc1C,8.64 µM
22,CN(C)/C=C/C(=O)c1ccc2noc(-c3ccccc3)c2c1,3.72 µM

row,Compound,IC50
1,Cc1cccc(NC(=O)c2cc(Cl)ccc2[N+](=O)[O-])c1,5.61 µM
2,CN(C)c1ccc(/C=C/c2ccc3ccccc3n2)cc1,5.65 µM
3,COc1cc(/C=C2\CC(C(C)(C)C)C/C(=C\c3cc(OC)c(OC)c(OC)c3)C2=O)cc(OC)c1OC (stereo unspecified),> 35.9 µM (inactive)
4,COc1cccc(/C=N/Nc2cc(-n3nc(C)cc3-c3ccccc3)ncn2)c1O,4.12 µM
5,NC(=O)c1sc2nc3c(c(-c4ccco4)c2c1N)CCC3,1.12 µM
6,Nc1nccc(-c2ccc(-n3cnc4ccccc43)cc2)n1,1.91 µM
7,O=C(Nc1cccc(C(F)(F)F)c1)Nc1nnc([C@@H]2C[C@H](O)[C@@H](CO)O2)s1,5.86 µM
8,Nc1ccc(Oc2ccccc2-c2ccccc2)cc1,inactive
9,CC(=O)c1cccc(-c2csc3ncnc(Sc4nnnn4C)c23)c1,inactive
10,CCOc1ccccc1-n1c(SCC(=O)Nc2ccccc2C(=O)O)nc2ccccc2c1=O,> 35.9 µM (inactive)
11,C(=Cc1cnc2ccccc2n1)c1ccc2c(c1)OCO2,inactive
12,CN[C@H]1CCc2cc(OC)c(OC)c(OC)c2-c2ccc(OC)c(=O)cc21,> 35.9 µM (inactive)
13,COc1cc(C(=O)OCC(=O)Nc2sccc2C(N)=O)cc(OC)c1OC,> 35.9 µM (inactive)
14,Fc1ccc(CSc2nnc(-c3ccncc3)o2)cc1,2.44 µM
15,CC(C)(C)c1ccc(Oc2ccc(N)cn2)cc1,inactive
16,CS(=O)c1nc(-c2ccc(Br)cc2)cc(-c2ccccc2)c1C#N (stereo unspecified),inactive
17,CCOc1ccc(/C=C2\SC(=S)N(CCC(=O)O)C2=O)cc1,> 35.9 µM (inactive)
18,CCn1ccnc1CN(C)Cc1cn[nH]c1-c1ccc(OC)c(F)c1,4.91 µM
